One assay has as its system ELIC W206Y. The experiment in a line: FlexStation membrane potential dye assay, GABA-elicited responses. Format: cell-based, D. didantii. The settings on record: HEK293 cells. Here is the method: (§1) These methods were similar to those previously described ([55]). Briefly, ELIC cDNA was transfected into HEK293 cells, and these were then grown for 2 to 3 days in a 96-well plate. Then blue fluorescent membrane potential dye (Molecular Devices Ltd) diluted in Flex buffer (10 mM HEPES, 115 mM NaCl, 1 mM KCl, 1 mM CaCl2, 1 mM MgCl2, 10 mM glucose, pH 7.4) was added to each well. After incubation at 37 °C for 30 min, plates were placed in a FlexStation (Molecular Devices Ltd) and fluorescence measured every 2 s for 120 s. […] Concentration–response data were fitted to the four-parameter logistic equation, F = Fmin + (Fmax − Fmin)/(1 + 10^log(EC50-[A])∗^nH), where [A] is the concentration of agonist, nH is the Hill coefficient, and Fmax and Fmin are the maximal and minimal fluorescence levels for each dataset, using Prism software (GraphPad). WT and mutant responses were compared using an ANOVA test followed by Dunnett’s multiple comparison test.

The target in the next assay is T1, ELIC W206F (Dickeya chrysanthemi, UniProt P0C7B7, INS163G/W205F).
T1 construct: expressed in transfected cells; host or cells: HEK293
The assay is described as above. Format: cell-based, D. didantii. The settings on record: HEK293 cells, n = 4. The protocol:
as §1

For a further assay, the target named is T2, ELIC W206A (Dickeya chrysanthemi, UniProt P0C7B7, INS163G/W205A).
T2 construct: expressed in transfected cells; host or cells: HEK293
Described as above. In kind it is cell-based, D. didantii. The conditions noted are these: HEK293 cells, up to 100 mM GABA. Here is the method:
as §1

The test system of a further assay is wild-type (WT) ELIC. Described as above. In kind it is cell-based, D. didantii. The conditions noted are these: HEK293 cells transfected with WT ELIC. Here is the method:
as §1

Assay [1] deals with ELIC with fluorinated Trp at W206. The experiment in a line: Two-electrode voltage clamp of oocytes, noncanonical fluorinated Trp (FW, F2W, F3W) at position 206. In kind it is cell-based, D. didantii. The settings on record: F3W at position 206, compared with WT. The protocol: Site-directed mutagenesis was performed using the QuikChange strategy (Stratagene) using ELIC in pGEM-HE. Mutations were confirmed by sequencing. For noncanonical amino acid mutants, the site of interest was mutated to the TAG stop codon. Plasmids were linearized and receptor mRNA prepared by in vitro runoff transcription using the Ambion T7 mMessage mMachine kit. Noncanonical amino acids ligated to tRNA were prepared as previously described ([56]).
Stage V-VI oocytes of Xenopus laevis were harvested and injected with mRNAs as described previously. For experiments with WT channels and conventional mutants, each cell received a single injection of 10 to 25 ng of receptor mRNA approximately 24 h before recording. For nonsense suppression experiments, each cell was injected with 50 to 100 ng each of receptor mRNA and appropriate tRNA approximately 48 h before recording. Injection volumes for each injection session were 50 to 100 nl per cell.
Two-electrode voltage clamping of Xenopus oocytes was performed using an OpusXpress system (Axon Instruments, Inc). All experiments were performed at 22 to 25 °C. […] The holding potential was −60 mV unless otherwise specified. Concentration–response curves and parameters were obtained using Prism software (GraphPad, PRISM).
(Two-electrode voltage clamp is typically applied to oocytes expressing channels or transporters.)

Assay [2] relates to α1β2 εF260E mutant GABAAR. Nature of the assay: Two electrode voltage clamp recordings from Xenopus oocytes. The settings on record: ε F260E compared with WT. Format: cell-based, human.
Method: Mutations were engineered with a QuikChange strategy and confirmed by sequencing. For functional expression of GABAAR containing an ε subunit, the mRNAs encoding for the human α1 (NP_000797.2), β2 (NP_068711.1) and ε subunits were mixed in a 1:1:0.1 ratio in nuclease-free distilled water at a concentration of 0.4 μg/μl (n.b. the definitive stoichiometry of the expressed receptors was not determined). […] Injection of 2 ng of mRNA per oocyte was done using the automated injection system Roboinject (Multi Channel Systems). Oocytes were incubated at 18 °C for 2 to 5 days prior to conducting the electrophysiological recordings using the two electrode automated voltage clamp system (HiClamp apparatus, Multi Channel Systems). […] Data acquired with the HiClamp were analyzed using the manufacturer’s software (Multi Channel Systems). Concentration–activation curves were fitted with the empirical Hill equation. Data are presented as the mean ± standard deviation (SD). Statistical comparison between WT and mutants was done with an unpaired, two-tailed t test with Welch’s correction for unequal sample size and variance.

One may read the EC50 as the concentration giving half of the maximal effect. Low values mean a more potent agent, high ones a less potent agent. In general, pEC50 refers to the EC50 on a negative log10 scale, so that one unit is a factor of ten. A high value points to a low EC50. The Hill coefficient is a measure of the steepness of the concentration-response curve. For the molecule `NCCCC(=O)O` [GABA], the maximal response in the assay with ELIC W206Y was ~60 % of WT. On ELIC W206F, this molecule displayed an EC50 of 2000 µM and a negative-log EC50 (pEC50) of 2.694 ± 0.08. Further, the GABA-elicited response entry at ELIC W206A is “no response”. This molecule also had a Hill coefficient in the assay on wild-type (WT) ELIC of 2.2 ± 1.4. Further, the “change of EC50-values” in assay [1] was “increased EC50-values”. Besides, the “decrease of apparent GABA affinity” value in assay [2] is reported as “threefold”.

The values above are taken from article PMC8327344, “Regulation of a pentameric ligand-gated ion channel by a semiconserved cationic lipid-binding site” (The Journal of Biological Chemistry, 2021).
